The text below walks through data of publication PMC12683216, “Using High‐Throughput Screening to Identify Crosslinking Peptides That Control Cell‐Mediated Matrix Degradation” (Advanced Healthcare Materials, 2025).

Holding throughout (format): in vitro ADME, human
Common to all, as to settings: human, 24 h, LC-MS

Data set [1] in a line: Soluble peptide degradation, Media condition (cell-conditioned media, LC-MS). The procedure: (§1) Most in vitro protease activity assays incubate the peptides or proteins of interest with a single protease in a buffered solution. However, the kinetics of protease activity in tissues are complex and highly regulated, and both the activity^[ [37] ^] and substrate specificity^[ [38] ^] of proteases can be modulated through association with other proteins.^[ [39] ^] Most MMP‐substrate peptides are also cleaved by multiple proteases,^[ [5] ^] and within the context of biomaterials, the most important factor is typically how the combined activity of all proteases, rather than the activity of any specific protease, modifies the local microenvironment versus the activity due to any individual enzyme. We synthesized peptides identified in the TAILS proteomic screen that were present on proteins that are known to be secreted or found on the cell membrane, pooled them, and added them either to cell culture media on top of cells, the “Cells” condition, or conditioned media lacking cells, the “Media” condition (Figure 2A). The fraction of peptides remaining after 24 h in each condition was then quantified using LC‐MS. Soluble proteases should be present in both conditions, however, membrane‐type proteases should primarily be found in the samples containing cells and not the conditioned media samples. A key benefit of this approach is that it surveys the total functional proteolytic activity, including the effects of inhibitors and co‐factors, and quantifies the degradation rate of soluble peptides by the complete secretome of different cell types.
(§2) hUVECs (75000 per well) or hMSCs (36000 per well) were seeded into a 48 well plate, and 500 µL media was added to the wells. […] The peptide libraries were dissolved at a stock solution of 10 mM total peptide content. For libraries containing 38 peptides, 95 µL of the stock solution was added to each well; for libraries with 19 peptides, 47.5 µL was added to each well, and media was taken at 0 and 24 h. Add 4 µL of acetic acid to all collected media in the LC‐MS plates and store them in a −80 °C freezer to prevent further proteolytic degradation. From each sample, 10 µL of crude solution was introduced by the LC‐MS through a Thermo Scientific Vanquish LC System (Thermo Fisher Scientific), which outputted to a Thermo Scientific LTQ XL Linear Ion Trap Mass Spectrometer (Thermo Fisher Scientific). The sampled mixture was trapped on a column (ProntoSIL C18 AQ, 120 Å, 3 µm, 2.0 x 50 mm HPLC Column, PN 0502F184PS030, MAC‐MOD Analytical Inc.). The samples were loaded onto the column with a solvent containing acetonitrile/water, 5:95 (v/v) containing 1% acetic acid at a flow rate of 300 µL min^−1 and held for 1 min. The sample was then eluted from the column with a linear gradient of 5–40% Solvent B (1% acetic acid in acetonitrile) at the same flow rate for 5 min. This was followed by a 1 min ramp up to 100% Solvent B, where it was re‐equilibrated with Solvent A (1% acetic acid) to 5% solvent B over the course of 1 min and held there for 2 min. The column temperature was kept at a constant 29 °C, and the mass spectrometer was operated in positive ion mode. Using a Heated ESI, the Source Voltage was set to 4.1 kV, and the capillary temperature was 350 °C. For non‐library degradation studies, 2.5 µL of 10 mM peptide stock solution for each peptide was added.
(§3) To assess the activity of the conditioned media, the media were divided into two equal portions. One portion was used for a standard degradation study, while the other was cultured for an additional 24 h before the PanMMP and KLVADLMASAE were added. After 24 h of incubation, the media were collected for further analysis. To assess the impact of recombinant MMP‐14 on PanMMP and KLVADLMASAE, recombinant MMP‐14 (antibodies.com) was dissolved in the media at a concentration of 0.5 nM. The remaining steps followed the standard degradation study protocol. […]

Experiment in data set [2]: as above
As for the experimental part:
as §1, §2, §3
This is another data set of the same source.

A short description of data set [3]: Soluble peptide degradation, Cells condition (LC-MS). The procedure:
as §1, §2
In the MMP‐14 inhibitor study, the MMP‐14 inhibitor NSC 405 020 (Cayman Chemical Company) was dissolved in DMSO to make a 10 mM stock solution and stored in −20 °C freezer. 0.5 µL MMP‐14 inhibitor stock solution was added to each well to achieve a 10 µM final concentration.
For all degradation studies using soluble peptides, a non‐proteolytically degradable NH2‐βFβAβAβAβAβAβA‐amide (βFβA6) peptide, where βF is β‐phenylalanine and βA is β‐alanine, was added at a 50 µM concentration and used as an internal standard. Peptide degradation ratios were measured by LC‐MS and analyzed by Xcalibur. […]

Setting [4] is: Figure 2B heatmap, pooled TAILS-derived soluble peptides in 24 h hUVEC-conditioned media without cells, ratio to βFβA6 internal standard, 24 h / 0 h, N = 5, read-out: Fraction of peptide remaining at 24 hours: hUVEC Media.
[5] abbreviates: Figure 2B heatmap, pooled TAILS-derived soluble peptides in 24 h hMSC-conditioned media without cells, ratio to βFβA6 internal standard, 24 h / 0 h, N = 5, read-out: Fraction of peptide remaining at 24 hours: hMSC Media.
The mark [6] stands for this setting: hMSCs in culture with fresh media (Cells condition), Figure 2B heatmap, pooled TAILS-derived soluble peptides (Ac-βAla N-terminus, βAla-amide C-terminus) in media on hMSCs (36000 per well, 48 well plate, 500 µL), ratio to βFβA6 internal standard, 24 h / 0 h, N = 5, read-out: Fraction of peptide remaining at 24 hours: hMSC Cells.
The mark [7] stands for this setting: hUVECs in culture with fresh media (Cells condition), Figure 2B heatmap, pooled TAILS-derived soluble peptides in media on hUVECs (75000 per well, 48 well plate, 500 µL), ratio to βFβA6 internal standard, 24 h / 0 h, N = 5, read-out: Fraction of peptide remaining at 24 hours: hUVEC Cells.
[8] abbreviates: hUVEC-conditioned media without cells (Media condition), Figure 3B heatmap, split-and-pool libraries KLVADX1X2ASAE in hUVEC-conditioned media without cells, ratio to βFβA6, N = 2, read-out: Fraction of peptide remaining after 24 hours: hUVEC Media.
Where [9] appears, read: hMSC-conditioned media without cells (Media condition), Figure 3B heatmap, split-and-pool libraries KLVADX1X2ASAE in hMSC-conditioned media without cells, ratio to βFβA6, N = 2, read-out: Fraction of peptide remaining after 24 hours: hMSC Media.
Setting [10] is: hMSCs in culture with fresh media (Cells condition), Figure 3B heatmap, split-and-pool libraries KLVADX1X2ASAE (19 or 38 peptides per library) in media on hMSCs, ratio to βFβA6, N = 2, read-out: Fraction of peptide remaining after 24 hours: hMSC Cells.
[11] abbreviates: hUVECs in culture with fresh media (Cells condition), Figure 3B heatmap, split-and-pool libraries KLVADX1X2ASAE in media on hUVECs, ratio to βFβA6, N = 2, read-out: Fraction of peptide remaining after 24 hours: hUVEC Cells.

Where a SMILES comes first, the peptide text is derived from it. [ ]: non-standard residue; d: D form. βAla = NCCC(=O)O

For the molecule `CC(=O)NCCC(=O)N[C@@H](CCCCN)C(=O)N[C@@H](C)C(=O)N1CCC[C@H]1C(=O)NCC(=O)NCC(=O)N[C@@H](CCCCN)C(=O)N[C@@H](C)C(=O)N[C@@H](C)C(=O)NCC(=O)N1CCC[C@H]1C(=O)N[C@@H](C)C(=O)NCCC(N)=O` [KAPGGKAAGPA] (Ac-[βAla]KAPGGKAAGPA[βAla]-NH2), the share remaining at 24 h in data set [1] (setting [4]) came out at 88%; in data set [2] (setting [5]) it was 95%; in data set [3] (setting [6]), 78%; in data set [3] (setting [7]), 71%.

`CC(=O)NCCC(=O)N[C@@H](CCCCN)C(=O)N[C@@H](CC(C)C)C(=O)N[C@H](C(=O)N[C@@H](C)C(=O)N[C@@H](CC(=O)O)C(=O)N1CCC[C@H]1C(=O)N[C@@H](Cc1c[nH]c2ccccc12)C(=O)N[C@@H](C)C(=O)N[C@@H](CO)C(=O)N[C@@H](C)C(=O)N[C@@H](CCC(=O)O)C(=O)NCCC(N)=O)C(C)C` [Pro-Trp] (Ac-[βAla]KLVADPWASAE[βAla]-NH2): the fraction remaining at 24 h in data set [1] (setting [8]) came to 94%; in data set [2] (setting [9]), 66%; in data set [3] (setting [10]) it was 38%; in data set [3] (setting [11]), 81%.

In the case of `CC(=O)NCCC(=O)N[C@@H](CCC(=O)O)C(=O)N[C@@H](CCC(=O)O)C(=O)N[C@@H](CO)C(=O)N[C@@H](CO)C(=O)N[C@@H](Cc1c[nH]c2ccccc12)C(=O)NCC(=O)NCC(=O)N[C@@H](CO)C(=O)N1CCC[C@H]1C(=O)N[C@@H](CO)C(=O)N1CCC[C@H]1C(=O)N[C@H](C(=O)N[C@@H](CCCNC(=N)N)C(=O)NCCC(N)=O)C(C)C` [EESSWGGSPSPVR] (Ac-[βAla]EESSWGGSPSPVR[βAla]-NH2), the share remaining at 24 h in data set [1] (setting [4]) was determined as 102%; in data set [2] (setting [5]) it was 99%; in data set [3] (setting [6]), 89%.

With `CC(=O)NCCC(=O)N[C@@H](CCCCN)C(=O)N[C@@H](CC(C)C)C(=O)N[C@H](C(=O)N[C@@H](C)C(=O)N[C@@H](CC(=O)O)C(=O)N[C@@H](CC(=O)O)C(=O)N[C@@H](CCC(N)=O)C(=O)N[C@@H](C)C(=O)N[C@@H](CO)C(=O)N[C@@H](C)C(=O)N[C@@H](CCC(=O)O)C(=O)NCCC(N)=O)C(C)C` [Asp-Gln] (Ac-[βAla]KLVADDQASAE[βAla]-NH2), the fraction remaining at 24 h in data set [1] (setting [8]) was 102%; in data set [2] (setting [9]) it was 75%; in data set [3] (setting [10]) it was 39%; in data set [3] (setting [11]) it was 84%.

As for `CC(=O)NCCC(=O)N[C@@H](CCCCN)C(=O)N[C@@H](CC(C)C)C(=O)N[C@H](C(=O)N[C@@H](C)C(=O)N[C@@H](CC(=O)O)C(=O)NCC(=O)N[C@@H](Cc1ccc(O)cc1)C(=O)N[C@@H](C)C(=O)N[C@@H](CO)C(=O)N[C@@H](C)C(=O)N[C@@H](CCC(=O)O)C(=O)NCCC(N)=O)C(C)C` [Gly-Tyr] (Ac-[βAla]KLVADGYASAE[βAla]-NH2), the fraction remaining at 24 h was found to be 100% in data set [1] (setting [8]), 74% in data set [2] (setting [9]), 48% in data set [3] (setting [10]) and 88% in data set [3] (setting [11]).

Take `CC[C@H](C)[C@H](NC(=O)[C@H](CCCCN)NC(=O)[C@@H](NC(=O)[C@H](CO)NC(=O)[C@H](CO)NC(=O)[C@@H]1CCCN1C(=O)CCNC(C)=O)[C@@H](C)CC)C(=O)N[C@@H](CCCCN)C(=O)N[C@@H](CO)C(=O)N[C@@H](C)C(=O)N[C@@H](CC(=O)O)C(=O)N[C@@H](CCCCN)C(=O)NCCC(N)=O` [PSSIKIKSADK] (Ac-[βAla]PSSIKIKSADK[βAla]-NH2): the fraction remaining at 24 h in data set [1] (setting [4]) is 93%; in data set [2] (setting [5]), 90%; in data set [3] (setting [6]), 81%; in data set [3] (setting [7]), 86%.

As to `CC(=O)NCCC(=O)N[C@@H](CCCCN)C(=O)N[C@@H](CC(C)C)C(=O)N[C@H](C(=O)N[C@@H](C)C(=O)N[C@@H](CC(=O)O)C(=O)N[C@@H](Cc1ccc(O)cc1)C(=O)N1CCC[C@H]1C(=O)N[C@@H](C)C(=O)N[C@@H](CO)C(=O)N[C@@H](C)C(=O)N[C@@H](CCC(=O)O)C(=O)NCCC(N)=O)C(C)C` [Tyr-Pro] (Ac-[βAla]KLVADYPASAE[βAla]-NH2), the share remaining at 24 h came out at 96% in data set [1] (setting [8]), 65% in data set [2] (setting [9]), 35% in data set [3] (setting [10]) and 89% in data set [3] (setting [11]).

As for `CC[C@H](C)[C@H](NC(=O)[C@H](CCC(=O)O)NC(=O)[C@H](C)NC(=O)[C@H](CC(C)C)NC(=O)[C@H](C)NC(=O)[C@H](CC(=O)O)NC(=O)CCNC(C)=O)C(=O)N[C@@H](CC(C)C)C(=O)N[C@@H](CCC(N)=O)C(=O)N[C@@H](C)C(=O)N[C@@H](CC(N)=O)C(=O)N[C@@H](CC(=O)O)C(=O)NCCC(N)=O` [DALAEILQAND] (Ac-[βAla]DALAEILQAND[βAla]-NH2), the figures for the fraction remaining at 24 h in data set [2] (setting [5]), in data set [3] (setting [6]) and in data set [3] (setting [7]) were 90%, 81% and 84%, respectively.

As for `CSCC[C@H](NC(=O)[C@H](CCC(=O)O)NC(=O)CNC(=O)[C@H](Cc1ccccc1)NC(=O)[C@H](CO)NC(=O)[C@H](Cc1ccc(O)cc1)NC(=O)[C@@H](NC(=O)[C@H](CCC(=O)O)NC(=O)CCNC(C)=O)C(C)C)C(=O)N1CCC[C@H]1C(=O)N[C@@H](Cc1c[nH]c2ccccc12)C(=O)NCCC(N)=O` [EVYSFGEMPW] (Ac-[βAla]EVYSFGEMPW[βAla]-NH2), the share remaining at 24 h in data set [2] (setting [5]) was 78%; in data set [3] (setting [6]), 22%; in data set [3] (setting [7]) it was 70%.
